Measurements: patent US10227339B2, “Salt form and crystal form of 1,2,5-thiadiazolidin-1,1-dioxide, preparation method thereof and intermediate” (JIANGSU KANION PARMACEUTICAL CO. LTD, priority 2015, dated 2019)
≈ marks a conversion by molar mass, not a printed value. Read-outs that look alike come from different tables or passages of the source.

Key:
[1] = Solubility test of crystal form A in different solvents; assay type: physicochemical; details: thermodynamic from solid
Protocol: (§1) Solubility Test of Crystal Form a in Different Solvents Add 1^˜1.5 mg crystal form A of the compound 1 in volumetric flask, then single solvent or mixed solvent is added into the flask with multiple times until the solution become clear or solid particles disappear. The solubility of crystal form A in different solvents is determined thereby.

HFMD virus EV71 = assay: EV71 in-vitro cytopathic effect (CPE) test; assay type: cell-based; details: Enterovirus A, EV71, 72 h; RD cells, 3 days, CCK8 readout; read-out: EC50 by EC71 CPE test, EV71
Source text: Activity Evaluation In Vitro Experimental 1: Test of EV71 In-Vitro Cytopathic Effect (CPE) Purpose of Experiment: To test the in-vitro antiviral activity and cytotoxicity of a compound to HFMD virus EV71 by means of cytopathic effect (CPE) test. Test Materials: 1. Virus strain: Shenzhen/120F1/09 2. Cell line: RD cells of human rhabdomyoma 3. Cell culture media: DMEM medium added with 10% serum, Penicillin/Streptomycin and L-Glutannine (1^×) 4. Test reagent: cellular activity test reagent CCK8 Test Method: 1. Cell inoculation: digest off the RD cells from the attached state, then dilute them with culture medium to a density of 80000/ml and inoculate 100 μl into the micro wells of the 96-well plate. 2. Dilution of Compound: Step 1: prepare the dry powder of a compound to be tested into a 10 mM solution in DMSO. Then dilute the compound by three times to eight concentration points. Dilute the reference compounds with the same method. Step 2: further dilute the diluted solution of the compound in DMSO with cell culture medium. Add 10 μl DMSO solution for each well into 240 μl culture medium. 3. Add the diluted compound solution by 50 μl each well into the 96-well plate inoculated with cells (double holes, final concentration of DMSO is 1%). 4. […] Use ELIASA to read the absorbancy at the wavelength of 450 nm and 630 nm. […]

[2] = Solubility test of crystal form B in different solvents; assay type: physicochemical; details: thermodynamic from solid; for solubility at 4 h: read-out: Solubility (mg/mL) 4 h; for solubility at 24 h: read-out: Solubility (mg/mL) 24 h
Protocol: as §1, with “Form B” for “Form a”, “form B” for “form A”, “compound 2” for “compound 1”

[3] = aqueous buffer, pH 3.5 buffer solution
[4] = aqueous buffer, pH 4.5 buffer solution
[5] = aqueous buffer, pH 5.5 buffer solution
[6] = aqueous buffer, pH 6.5 buffer solution
[7] = aqueous buffer, pH 6.8 buffer solution
[8] = aqueous buffer, pH 7.5 buffer solution
[9] = saline or isotonic, normal saline
[10] = simulated gastric fluid, 0.01N HCl
[11] = simulated gastric fluid, 0.1N HCl

CCn1nnc(-c2ccc(OCCC(C)(C)CCN3CCN(c4ccnc(N)c4)S3(=O)=O)nc2)n1 [Compound 1]
solubility ([1]; aqueous with cosolvent or surfactant or cyclodextrin, solvent: Acetone-water (3:1)): < 2240 µg/mL
solubility ([1]; aqueous with cosolvent or surfactant or cyclodextrin, solvent: Ethanol-water (3:1)): < 2320 µg/mL
solubility ([1]; aqueous with cosolvent or surfactant or cyclodextrin, solvent: Methanol-water (3:1)): < 2070 µg/mL
solubility ([1]; organic solvent or mixture, solvent: 1,4-dioxane): 11800 to 13200 µg/mL (≈ 23.5 to 26.3 mM)
solubility ([1]; organic solvent or mixture, solvent: 2-Methyltetrahydrofuran): < 2180 µg/mL
solubility ([1]; organic solvent or mixture, solvent: acetone): 5580 to 7430 µg/mL (≈ 11.1 to 14.8 mM)
solubility ([1]; organic solvent or mixture, solvent: ethanol): < 2090 µg/mL
solubility ([1]; organic solvent or mixture, solvent: ethyl acetate): < 2130 µg/mL
solubility ([1]; organic solvent or mixture, solvent: methanol): < 1980 µg/mL
EC50 (HFMD virus EV71): ≤ 10 nM

CCn1nnc(-c2ccc(OCCC(C)(C)CCN3CCN(c4ccnc(N)c4)S3(=O)=O)nc2)n1 [Compound 2]
solubility at 4 h [2, 3]: 232 mg/mL (≈ 463 mM)
solubility at 24 h [2, 3]: 186 mg/mL (≈ 370 mM)
solubility at 4 h [2, 4]: 6.12 mg/mL (≈ 12.2 mM)
solubility at 24 h [2, 4]: 4.54 mg/mL (≈ 9.05 mM)
solubility at 4 h [2, 5]: < 0.1 mg/mL
solubility at 24 h [2, 5]: < 0.1 mg/mL
solubility at 4 h [2, 6]: < 0.1 mg/mL
solubility at 24 h [2, 6]: < 0.1 mg/mL
solubility at 4 h [2, 7]: < 0.1 mg/mL
solubility at 24 h [2, 7]: < 0.1 mg/mL
solubility at 4 h [2, 8]: < 0.1 mg/mL
solubility at 24 h [2, 8]: < 0.1 mg/mL
solubility at 4 h [2, 9]: 42.9 mg/mL (≈ 85.5 mM)
solubility at 24 h [2, 9]: 43.4 mg/mL (≈ 86.6 mM)
solubility at 4 h [2, 10]: > 998 mg/mL
solubility at 24 h [2, 10]: > 986 mg/mL
solubility at 4 h [2, 11]: > 873 mg/mL
solubility at 24 h [2, 11]: > 935 mg/mL
solubility at 4 h ([2]; water): 416 mg/mL (≈ 829 mM)
solubility at 24 h ([2]; water): 346 mg/mL (≈ 690 mM)
